Experimental findings from US20240123078A1, “COMPOUNDS AND METHODS FOR MODULATING IMMUNE-RELATED PROTEINS” (Vividion Therapeutics, Inc., priority 2019, published 2024) are described below.

Test in all cases: Cysteine reactivity ABPP
What all share (format): binding

The target of assay [1] is T1, PDIA3 Protein disulfide-isomerase A3 C57, C60 (P30101) (Homo sapiens, UniProt P30101).
T1 construct: endogenous in cells; host or cells: primary human T cells
T1 sequence (P30101 25-505): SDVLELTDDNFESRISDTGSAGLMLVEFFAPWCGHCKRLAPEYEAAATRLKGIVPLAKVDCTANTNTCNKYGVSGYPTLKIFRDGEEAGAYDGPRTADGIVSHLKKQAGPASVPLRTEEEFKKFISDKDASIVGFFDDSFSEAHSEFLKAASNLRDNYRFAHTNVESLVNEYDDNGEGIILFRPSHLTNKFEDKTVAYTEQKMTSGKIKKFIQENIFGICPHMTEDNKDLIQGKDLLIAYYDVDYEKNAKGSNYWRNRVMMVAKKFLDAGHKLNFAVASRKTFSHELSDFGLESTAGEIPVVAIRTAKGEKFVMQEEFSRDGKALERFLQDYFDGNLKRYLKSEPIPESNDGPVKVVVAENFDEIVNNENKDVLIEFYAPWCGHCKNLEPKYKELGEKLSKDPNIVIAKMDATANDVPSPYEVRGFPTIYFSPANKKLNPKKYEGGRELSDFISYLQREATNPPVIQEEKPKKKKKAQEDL
The method, then:
(§1) Activated or expanded primary human T cells were re-suspended in RPMI (1×10^6 cells/mL) containing 10% fetal bovine serum (FBS), penicillin (100 U/mL), streptomycin ([…]), and L-glutamine (2 mM). The cells were treated with DMSO or compounds for 3 h, pelleted (524 g, 5 min), washed with PBS, and lysed by sonication (2×8 pulses). Soluble and particulate proteomic fractions were separated by ultracentrifugation (100,000 g, 45 min), and protein concentration was normalized to 1.7 mg/mL using a standard DC protein assay (Bio-Rad). The resulting proteomes were analyzed by competitive isotopic Tandem Orthogonal Proteolysis Activity-Based Protein Profiling (isoTOP-ABPP).
(§2) The heavy/light isoTOP-ABPP ratios (R values) for each unique peptide (DMSO/compound treated) were quantified with in-house CIMAGE software (Weerapana et al., 2010) using default parameters (3 MS1 acquisitions per peak and signal to noise threshold set to 2.5). Site-specific engagement of cysteine residues was assessed by blockade of IA-alkyne probe labeling. […] Ratios for unique peptide sequences were calculated for each experiment; overlapping peptides with the same modified cysteine (e.g., different charge states, elution times or tryptic termini) were grouped together and the median ratio was reported as the final ratio (R). Additionally, ratios for peptide sequences containing multiple cysteines were grouped together. When aggregating data across experimental replicates, the mean of each experimental median R was reported. The peptide ratios reported by CIMAGE were further filtered to ensure the removal or correction of low-quality ratios in each individual dataset. The quality filters applied were the following: removal of half-tryptic peptides, removal of peptides with more than one tryptic miscleaved, removal of peptides with R=20 and only a single MS2 event triggered during the elution of the parent ion, removal of non-unique peptides. Further filtering was then performed as described below for each experiment type.
(§3) Samples (500 μL, 1.7 mg/mL) were treated with iodoacetamide desthiobiotin (IA-DTB, 5 μL of 10 mM stock in DMSO, final concentration: 100 μM) for 1 h at ambient temperature. Ice-cold MeOH (500 μL) and CHCl3 (200 μL) were then added, the mixture was vortexed and centrifuged (10,000 g, 10 min, 4° C.) to afford a protein disc at the interface of CHCl3 and aqueous layers. Both layers were aspirated without perturbing the disk, which was re-suspended in cold methanol (500 μL) and CHCl3 (200 μL) by sonication. The proteins were pelleted (10,000 g, 10 min, 4° C.), and the resulting pellets were re-suspended in a buffer (90 μL) containing 9M urea, 10 mM DTT and 50 mM triethylammonium bicarbonate ( 1/20 dilution of 1.0 M stock solution, pH 8.5) by thorough pipetting up and down. The resulting mixture was heated at 65° C. for 20 min. Sample was cooled to room temp, iodoacetamide (10 μL, 500 mM solution in H2O) was added, and the samples were incubated at 37° C. for 30 min with shaking.
(§4) At individual TMT experiment level, the following filters were applied to remove low-quality peptides: removal of non-unique peptides; removal of half-tryptic peptides; removal of peptides with more than one internal miscleaved site; removal of peptides with low (<10,000) sum of reporter ion intensities for control channels, and peptides with high variation between the replicate control channels (coefficient of variance >0.5). R values (compound-treated vs. DMSO-treated) for each peptide entry were calculated using the reporter ion intensities of DMSO and compound treated TMT channels for each treatment group with a maximum ratio cap of 20. […]

The target in assay [2] is T2, TRANK1 TPR and ankyrin repeat-containing protein 1 C1319 (O15050) (Homo sapiens, UniProt O15050).
T2 construct: Soluble and particulate proteomic fractions were separated by ultracentrifugation; endogenous in cells; host or cells: primary human T cells
T2 sequence (O15050 whole entry, one chain of several): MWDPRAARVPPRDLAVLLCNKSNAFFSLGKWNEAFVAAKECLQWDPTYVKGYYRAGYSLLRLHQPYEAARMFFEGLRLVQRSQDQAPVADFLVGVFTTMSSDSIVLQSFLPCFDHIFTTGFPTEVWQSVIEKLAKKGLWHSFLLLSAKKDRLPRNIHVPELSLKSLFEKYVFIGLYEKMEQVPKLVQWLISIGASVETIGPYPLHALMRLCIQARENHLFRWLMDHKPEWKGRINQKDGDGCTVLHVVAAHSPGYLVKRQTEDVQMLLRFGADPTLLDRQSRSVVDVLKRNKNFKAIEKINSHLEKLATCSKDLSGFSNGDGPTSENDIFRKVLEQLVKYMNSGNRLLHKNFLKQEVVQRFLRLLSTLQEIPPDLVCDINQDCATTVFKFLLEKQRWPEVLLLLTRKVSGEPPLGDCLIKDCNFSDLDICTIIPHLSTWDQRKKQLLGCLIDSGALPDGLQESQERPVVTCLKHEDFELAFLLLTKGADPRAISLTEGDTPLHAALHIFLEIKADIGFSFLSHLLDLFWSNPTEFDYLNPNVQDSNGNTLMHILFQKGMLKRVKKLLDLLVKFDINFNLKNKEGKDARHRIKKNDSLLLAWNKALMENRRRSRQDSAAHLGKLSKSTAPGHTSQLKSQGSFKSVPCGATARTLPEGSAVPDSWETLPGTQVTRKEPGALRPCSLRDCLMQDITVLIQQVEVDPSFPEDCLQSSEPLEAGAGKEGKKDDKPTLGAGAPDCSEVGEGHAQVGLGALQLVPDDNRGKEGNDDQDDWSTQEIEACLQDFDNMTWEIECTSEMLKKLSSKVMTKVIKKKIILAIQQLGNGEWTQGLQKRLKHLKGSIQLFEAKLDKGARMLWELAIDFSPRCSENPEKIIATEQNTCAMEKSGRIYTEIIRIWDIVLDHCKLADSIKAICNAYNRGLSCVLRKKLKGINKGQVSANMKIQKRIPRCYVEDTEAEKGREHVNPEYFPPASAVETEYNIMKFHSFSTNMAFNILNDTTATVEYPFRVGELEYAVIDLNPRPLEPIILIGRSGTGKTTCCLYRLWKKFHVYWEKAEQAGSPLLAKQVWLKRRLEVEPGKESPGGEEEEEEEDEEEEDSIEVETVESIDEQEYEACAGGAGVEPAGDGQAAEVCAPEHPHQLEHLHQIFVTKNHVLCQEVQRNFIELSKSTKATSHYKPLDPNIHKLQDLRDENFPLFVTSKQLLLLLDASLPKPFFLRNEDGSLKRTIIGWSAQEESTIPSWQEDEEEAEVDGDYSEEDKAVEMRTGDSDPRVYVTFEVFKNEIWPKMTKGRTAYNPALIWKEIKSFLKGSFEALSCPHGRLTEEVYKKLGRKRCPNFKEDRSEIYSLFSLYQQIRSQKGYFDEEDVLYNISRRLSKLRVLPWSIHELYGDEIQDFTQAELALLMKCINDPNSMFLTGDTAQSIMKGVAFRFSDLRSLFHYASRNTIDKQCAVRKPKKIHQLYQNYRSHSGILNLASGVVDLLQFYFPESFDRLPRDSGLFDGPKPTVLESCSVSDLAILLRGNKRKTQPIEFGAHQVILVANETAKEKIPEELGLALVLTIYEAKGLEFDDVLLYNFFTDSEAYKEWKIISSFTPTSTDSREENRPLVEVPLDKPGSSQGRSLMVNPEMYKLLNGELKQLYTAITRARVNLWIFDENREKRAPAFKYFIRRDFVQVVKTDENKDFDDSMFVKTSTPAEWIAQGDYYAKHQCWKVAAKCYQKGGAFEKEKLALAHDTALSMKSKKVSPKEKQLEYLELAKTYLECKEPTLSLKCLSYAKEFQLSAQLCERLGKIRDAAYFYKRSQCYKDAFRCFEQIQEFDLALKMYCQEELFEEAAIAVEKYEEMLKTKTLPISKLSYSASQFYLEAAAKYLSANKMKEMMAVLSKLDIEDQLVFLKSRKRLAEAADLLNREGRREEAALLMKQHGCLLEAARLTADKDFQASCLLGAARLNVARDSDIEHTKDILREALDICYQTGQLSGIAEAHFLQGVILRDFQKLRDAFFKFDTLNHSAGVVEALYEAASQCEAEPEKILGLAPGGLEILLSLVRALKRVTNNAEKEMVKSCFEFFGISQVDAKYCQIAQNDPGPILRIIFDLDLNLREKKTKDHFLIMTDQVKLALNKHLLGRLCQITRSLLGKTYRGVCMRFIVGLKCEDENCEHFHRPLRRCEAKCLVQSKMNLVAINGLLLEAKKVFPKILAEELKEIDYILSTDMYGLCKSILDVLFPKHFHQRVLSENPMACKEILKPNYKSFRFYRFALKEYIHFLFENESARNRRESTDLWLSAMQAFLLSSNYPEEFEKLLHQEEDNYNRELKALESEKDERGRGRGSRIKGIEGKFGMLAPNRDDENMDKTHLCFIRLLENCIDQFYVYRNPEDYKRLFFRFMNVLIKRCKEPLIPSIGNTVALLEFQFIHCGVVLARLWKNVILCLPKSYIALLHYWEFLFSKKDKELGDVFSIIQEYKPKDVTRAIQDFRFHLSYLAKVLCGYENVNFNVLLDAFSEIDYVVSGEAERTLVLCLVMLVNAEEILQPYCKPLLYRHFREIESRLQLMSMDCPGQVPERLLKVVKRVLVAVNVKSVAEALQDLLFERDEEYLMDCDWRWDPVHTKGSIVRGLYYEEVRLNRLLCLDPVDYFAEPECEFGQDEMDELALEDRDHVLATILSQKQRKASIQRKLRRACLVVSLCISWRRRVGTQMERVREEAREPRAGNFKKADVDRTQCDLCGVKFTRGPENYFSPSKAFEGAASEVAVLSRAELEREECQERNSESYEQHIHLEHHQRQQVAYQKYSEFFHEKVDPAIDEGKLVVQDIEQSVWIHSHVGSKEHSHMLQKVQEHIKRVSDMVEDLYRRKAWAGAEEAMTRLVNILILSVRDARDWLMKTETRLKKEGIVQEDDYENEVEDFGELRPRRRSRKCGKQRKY
The procedure:
as §1, §2, §3, §4

Assay [3] addresses T3, PFKFB3 6-phosphofructo-2-kinase/fructose-2,6-bisphosphatase 3 C440 (Q16875) (Homo sapiens, UniProt Q16875).
T3 construct: endogenous in cells; host or cells: primary human T cells
The following applies: 100. The method, then: as §1, §2, §3, §4

The target in assay [4] is T4, PTPN11 Tyrosine-protein phosphatase non-receptor type 11 C259 (Q06124) (Homo sapiens, UniProt Q06124).
T4 construct: endogenous in cells; host or cells: primary human T cells
T4 sequence (Q06124 1-593): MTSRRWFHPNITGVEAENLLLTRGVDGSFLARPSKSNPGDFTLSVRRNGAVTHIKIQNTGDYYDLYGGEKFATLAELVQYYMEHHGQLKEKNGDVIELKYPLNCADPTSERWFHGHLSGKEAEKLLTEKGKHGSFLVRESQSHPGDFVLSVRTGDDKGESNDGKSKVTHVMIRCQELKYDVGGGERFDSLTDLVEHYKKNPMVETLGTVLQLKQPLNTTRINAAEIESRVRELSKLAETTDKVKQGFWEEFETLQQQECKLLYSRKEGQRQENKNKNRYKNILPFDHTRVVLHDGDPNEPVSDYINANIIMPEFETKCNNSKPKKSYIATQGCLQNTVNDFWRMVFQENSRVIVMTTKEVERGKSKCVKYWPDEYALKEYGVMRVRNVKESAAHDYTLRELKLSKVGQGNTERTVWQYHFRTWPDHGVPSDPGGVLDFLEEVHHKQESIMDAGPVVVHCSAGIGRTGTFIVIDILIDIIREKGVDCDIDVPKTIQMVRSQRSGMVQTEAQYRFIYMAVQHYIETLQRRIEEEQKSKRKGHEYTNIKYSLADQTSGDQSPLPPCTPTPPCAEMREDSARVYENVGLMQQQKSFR
The procedure:
as §1, §2, §3, §4

T3 sequence (Q16875 whole entry, one chain of several): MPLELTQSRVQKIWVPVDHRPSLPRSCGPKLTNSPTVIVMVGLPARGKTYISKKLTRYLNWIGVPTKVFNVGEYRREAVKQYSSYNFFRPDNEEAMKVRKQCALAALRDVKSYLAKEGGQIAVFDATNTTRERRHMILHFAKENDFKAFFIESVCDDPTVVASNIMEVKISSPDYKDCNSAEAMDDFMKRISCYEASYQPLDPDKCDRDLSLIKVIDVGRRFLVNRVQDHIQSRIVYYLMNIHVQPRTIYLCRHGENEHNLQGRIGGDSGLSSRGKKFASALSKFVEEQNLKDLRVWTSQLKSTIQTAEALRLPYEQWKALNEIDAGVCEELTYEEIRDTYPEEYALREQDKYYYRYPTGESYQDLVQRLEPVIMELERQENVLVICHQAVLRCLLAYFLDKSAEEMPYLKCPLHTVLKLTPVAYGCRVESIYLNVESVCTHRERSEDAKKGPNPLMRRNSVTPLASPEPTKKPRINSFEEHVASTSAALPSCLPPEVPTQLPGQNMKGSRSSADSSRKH

As for `O=C(CCl)N1CCN(S(=O)(=O)c2ccc(-c3ccncc3)cc2)CC1` [Compound B9], the “Cysteine reactivity proteomic data” value in assay [1] (100) stood at 61.24; in assay [2] (100), 82.88; in assay [3], 62.11; in assay [4] (100 μM), 16.62; in assay [4] (500 μM), 84.5074.

As for `C=CC(=O)N(Cc1cccc(Cl)c1Cl)c1ccc(Oc2ccccc2)c(C(F)(F)F)c1` [Compound K4], the “Cysteine reactivity proteomic data” value in assay [1] (500 μM) is 7.07; in assay [2] (500 μM), 6.5; in assay [4] (500 μM), 28.7525.
